Measured values: the NIST ThermoML archive (doi:10.1016/j.jct.2008.08.013)
± gives the expanded uncertainty stated by the source.

Test: xn = mol fraction of the nth substance listed
Settings: 101 kPa, Liquid, Vibrating tube method

Compound `ClCCl` [dichloromethane] + O=[N+]([O-])c1ccccc1 has a mass density (288.15 K, x1 = 0.021) of 1213.16 ± 0.13 kg/m3, a mass density (288.15 K, x1 = 0.1053) of 1219.99 ± 0.13 kg/m3 and a mass density (288.15 K, x1 = 0.2003) of 1228.35 ± 0.14 kg/m3. It also gave a mass density (288.15 K, x1 = 0.2499) of 1233.02 ± 0.14 kg/m3, a mass density (288.15 K, x1 = 0.3003) of 1238.01 ± 0.14 kg/m3 and a mass density (288.15 K, x1 = 0.3521) of 1243.35 ± 0.14 kg/m3. It also gave a mass density (288.15 K, x1 = 0.4025) of 1248.78 ± 0.14 kg/m3, a mass density (288.15 K, x1 = 0.4492) of 1254.01 ± 0.15 kg/m3 and a mass density (288.15 K, x1 = 0.4975) of 1259.65 ± 0.15 kg/m3. It also gave a mass density (288.15 K, x1 = 0.5512) of 1266.13 ± 0.15 kg/m3, a mass density (288.15 K, x1 = 0.5995) of 1272.2 ± 0.15 kg/m3 and a mass density (288.15 K, x1 = 0.6495) of 1278.7 ± 0.16 kg/m3. The mass density (288.15 K, x1 = 0.6999) was 1285.45 ± 0.16 kg/m3, the mass density (288.15 K, x1 = 0.7496) was 1292.42 ± 0.16 kg/m3 and the mass density (288.15 K, x1 = 0.799) was 1299.65 ± 0.16 kg/m3. For the same compound, the mass density (288.15 K, x1 = 0.8501) was 1307.44 ± 0.17 kg/m3, the mass density (288.15 K, x1 = 0.8975) was 1315.12 ± 0.17 kg/m3 and the mass density (288.15 K, x1 = 0.9798) was 1329.58 ± 0.18 kg/m3. The mass density (293.15 K, x1 = 0.021) was 1204.27 ± 0.13 kg/m3, the mass density (293.15 K, x1 = 0.1053) was 1211.21 ± 0.13 kg/m3 and the mass density (293.15 K, x1 = 0.2003) was 1219.76 ± 0.13 kg/m3. It also gave a mass density (293.15 K, x1 = 0.2499) of 1224.51 ± 0.13 kg/m3, a mass density (293.15 K, x1 = 0.3003) of 1229.63 ± 0.14 kg/m3 and a mass density (293.15 K, x1 = 0.3521) of 1235.09 ± 0.14 kg/m3. For the same compound, the mass density (293.15 K, x1 = 0.4025) was 1240.64 ± 0.14 kg/m3, the mass density (293.15 K, x1 = 0.4492) was 1245.99 ± 0.14 kg/m3 and the mass density (293.15 K, x1 = 0.4975) was 1251.71 ± 0.14 kg/m3. It also gave a mass density (293.15 K, x1 = 0.5512) of 1258.32 ± 0.15 kg/m3, a mass density (293.15 K, x1 = 0.5995) of 1264.47 ± 0.15 kg/m3 and a mass density (293.15 K, x1 = 0.6495) of 1271.04 ± 0.15 kg/m3. The mass density (293.15 K, x1 = 0.6999) was 1277.91 ± 0.16 kg/m3, the mass density (293.15 K, x1 = 0.7496) was 1284.93 ± 0.16 kg/m3 and the mass density (293.15 K, x1 = 0.799) was 1292.18 ± 0.16 kg/m3. For the same compound, the mass density (293.15 K, x1 = 0.8501) was 1299.97 ± 0.17 kg/m3, the mass density (293.15 K, x1 = 0.8975) was 1307.6 ± 0.17 kg/m3 and the mass density (293.15 K, x1 = 0.9798) was 1321.91 ± 0.17 kg/m3. For the same compound, the mass density (298.15 K, x1 = 0.021) was 1199.65 ± 0.12 kg/m3, the mass density (298.15 K, x1 = 0.1053) was 1206.52 ± 0.12 kg/m3 and the mass density (298.15 K, x1 = 0.2003) was 1214.95 ± 0.13 kg/m3. The mass density (298.15 K, x1 = 0.2499) was 1219.62 ± 0.13 kg/m3, the mass density (298.15 K, x1 = 0.3003) was 1224.61 ± 0.13 kg/m3 and the mass density (298.15 K, x1 = 0.3521) was 1229.95 ± 0.13 kg/m3. For the same compound, the mass density (298.15 K, x1 = 0.4025) was 1235.37 ± 0.14 kg/m3, the mass density (298.15 K, x1 = 0.4492) was 1240.56 ± 0.14 kg/m3 and the mass density (298.15 K, x1 = 0.4975) was 1246.14 ± 0.14 kg/m3. For the same compound, the mass density (298.15 K, x1 = 0.5512) was 1252.51 ± 0.14 kg/m3, the mass density (298.15 K, x1 = 0.5995) was 1258.48 ± 0.15 kg/m3 and the mass density (298.15 K, x1 = 0.6495) was 1264.8 ± 0.15 kg/m3. The mass density (298.15 K, x1 = 0.6999) was 1271.39 ± 0.15 kg/m3, the mass density (298.15 K, x1 = 0.7496) was 1278.12 ± 0.16 kg/m3 and the mass density (298.15 K, x1 = 0.799) was 1285 ± 0.16 kg/m3. For the same compound, the mass density (298.15 K, x1 = 0.8501) was 1292.47 ± 0.16 kg/m3, the mass density (298.15 K, x1 = 0.8975) was 1299.69 ± 0.17 kg/m3 and the mass density (298.15 K, x1 = 0.9798) was 1313.24 ± 0.17 kg/m3. The mass density (303.15 K, x1 = 0.021) was 1195.1 ± 0.12 kg/m3, the mass density (303.15 K, x1 = 0.1053) was 1201.87 ± 0.12 kg/m3 and the mass density (303.15 K, x1 = 0.2003) was 1210.13 ± 0.13 kg/m3. For the same compound, the mass density (303.15 K, x1 = 0.2499) was 1214.69 ± 0.13 kg/m3, the mass density (303.15 K, x1 = 0.3003) was 1219.55 ± 0.13 kg/m3 and the mass density (303.15 K, x1 = 0.3521) was 1224.73 ± 0.13 kg/m3. It also gave a mass density (303.15 K, x1 = 0.4025) of 1229.98 ± 0.13 kg/m3, a mass density (303.15 K, x1 = 0.4492) of 1235.01 ± 0.14 kg/m3 and a mass density (303.15 K, x1 = 0.4975) of 1240.37 ± 0.14 kg/m3. It also gave a mass density (303.15 K, x1 = 0.5512) of 1246.51 ± 0.14 kg/m3, a mass density (303.15 K, x1 = 0.5995) of 1252.21 ± 0.14 kg/m3 and a mass density (303.15 K, x1 = 0.6495) of 1258.26 ± 0.15 kg/m3. It also gave a mass density (303.15 K, x1 = 0.6999) of 1264.55 ± 0.15 kg/m3, a mass density (303.15 K, x1 = 0.7496) of 1270.91 ± 0.15 kg/m3 and a mass density (303.15 K, x1 = 0.799) of 1277.46 ± 0.16 kg/m3. The mass density (303.15 K, x1 = 0.8501) was 1284.49 ± 0.16 kg/m3, the mass density (303.15 K, x1 = 0.8975) was 1291.27 ± 0.16 kg/m3 and the mass density (303.15 K, x1 = 0.9798) was 1303.98 ± 0.17 kg/m3.
